Legend:
[1] = biological target: T1, Integrin alpha-V/beta-6 (Homo sapiens, UniProt P06756+P18564); experiment: Binding affinity to alphav/beta6 integrin in human A375Pbeta6 cells at 100 nM after 15 mins by flow cytometric analysis relative to biotinylated A20FMDV2; assay type: cell-based
[2] = biological target: T1, Integrin alpha-V/beta-6; experiment: Binding affinity to alphav/beta6 integrin in human A375Pbeta6 cells assessed as drug internalization at 100 nM after 15 mins by flow cytometric analysis relative to biotinylated A20FMDV2; assay type: ADME, cell-based; conditions: 0.25 h, 0.1 µM
Target sequence in this assay (P06756 31-889 limits assumed): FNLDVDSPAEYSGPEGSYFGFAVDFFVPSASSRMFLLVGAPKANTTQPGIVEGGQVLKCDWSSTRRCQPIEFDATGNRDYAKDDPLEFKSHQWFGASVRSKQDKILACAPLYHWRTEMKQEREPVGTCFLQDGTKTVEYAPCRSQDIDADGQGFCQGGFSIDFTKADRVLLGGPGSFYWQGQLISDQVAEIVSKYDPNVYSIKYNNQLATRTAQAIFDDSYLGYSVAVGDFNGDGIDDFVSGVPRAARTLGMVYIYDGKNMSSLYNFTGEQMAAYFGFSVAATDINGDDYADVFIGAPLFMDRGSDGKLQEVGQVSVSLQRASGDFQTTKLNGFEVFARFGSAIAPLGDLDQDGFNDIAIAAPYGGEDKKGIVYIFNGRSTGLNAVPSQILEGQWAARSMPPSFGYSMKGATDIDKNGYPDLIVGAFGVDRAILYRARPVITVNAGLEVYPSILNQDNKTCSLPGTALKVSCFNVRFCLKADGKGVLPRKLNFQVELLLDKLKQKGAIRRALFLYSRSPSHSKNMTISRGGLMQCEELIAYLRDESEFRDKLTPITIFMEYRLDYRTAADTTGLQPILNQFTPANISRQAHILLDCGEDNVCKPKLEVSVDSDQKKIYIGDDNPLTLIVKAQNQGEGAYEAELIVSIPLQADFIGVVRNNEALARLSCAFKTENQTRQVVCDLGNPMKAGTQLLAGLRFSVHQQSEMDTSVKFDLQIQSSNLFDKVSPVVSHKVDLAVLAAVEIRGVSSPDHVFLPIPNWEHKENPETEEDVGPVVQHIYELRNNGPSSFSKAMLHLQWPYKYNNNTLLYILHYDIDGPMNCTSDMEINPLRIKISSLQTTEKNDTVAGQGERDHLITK
Target sequence in this assay (P06756 891-1048 limits assumed): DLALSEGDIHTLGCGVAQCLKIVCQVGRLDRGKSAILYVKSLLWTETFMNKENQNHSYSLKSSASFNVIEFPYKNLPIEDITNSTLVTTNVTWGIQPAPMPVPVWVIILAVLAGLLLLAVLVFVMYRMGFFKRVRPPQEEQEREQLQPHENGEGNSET
Target sequence in this assay (P18564 22-788 limits assumed): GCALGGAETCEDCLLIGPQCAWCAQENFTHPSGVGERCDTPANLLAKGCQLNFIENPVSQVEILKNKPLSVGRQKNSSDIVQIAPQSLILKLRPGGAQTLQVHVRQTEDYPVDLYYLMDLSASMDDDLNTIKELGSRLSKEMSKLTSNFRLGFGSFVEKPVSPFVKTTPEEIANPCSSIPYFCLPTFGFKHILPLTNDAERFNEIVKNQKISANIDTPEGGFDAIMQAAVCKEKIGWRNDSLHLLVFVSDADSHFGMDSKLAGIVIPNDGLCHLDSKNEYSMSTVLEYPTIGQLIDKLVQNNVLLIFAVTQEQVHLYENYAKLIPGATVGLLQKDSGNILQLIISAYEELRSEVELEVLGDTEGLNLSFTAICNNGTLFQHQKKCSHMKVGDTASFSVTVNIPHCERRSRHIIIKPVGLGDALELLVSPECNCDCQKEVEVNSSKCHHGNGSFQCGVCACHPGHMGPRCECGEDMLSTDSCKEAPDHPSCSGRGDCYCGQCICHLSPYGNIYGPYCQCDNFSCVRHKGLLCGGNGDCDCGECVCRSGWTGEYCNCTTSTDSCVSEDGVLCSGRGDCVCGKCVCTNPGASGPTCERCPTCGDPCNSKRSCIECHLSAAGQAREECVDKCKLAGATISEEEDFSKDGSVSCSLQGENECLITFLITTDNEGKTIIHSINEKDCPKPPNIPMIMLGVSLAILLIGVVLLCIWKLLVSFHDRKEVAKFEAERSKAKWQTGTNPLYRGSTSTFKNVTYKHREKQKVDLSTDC

[3] = Drug uptake in human A375PPuro cells at 1000 nM after 15 mins by flow cytometric analysis; assay type: ADME, cell-based; conditions: 0.25 h, 1 µM

CC(C)C[C@H](NC(=O)[C@H](CC(=O)O)NC(=O)CNC(=O)[C@H](CCCNC(=N)N)NC(=O)[C@H](CC(C)C)NC(=O)[C@H](CC(N)=O)NC(=O)[C@@H]1CCCN1C(=O)[C@@H](NC(=O)[C@H](CCCCNC(=O)CCCC[C@@H]1SC[C@@H]2NC(=O)N[C@@H]21)NC(=O)[C@@H](N)CC(N)=O)C(C)C)C(=O)N[C@@H](CCC(N)=O)C(=O)N[C@H](C(=O)N[C@@H](CC(C)C)C(=O)N[C@@H](C)C(=O)N[C@@H](CCC(N)=O)C(=O)N[C@@H](CN)C(=O)N[C@H](C(=O)N[C@@H](C)C(=O)N[C@@H](CCCNC(=N)N)C(=O)N[C@H](C(=O)O)[C@@H](C)O)C(C)C)C(C)C
fold change (FC) [1]: 0.79 | fold change (FC) [2]: 0.96 | Drug uptake [3]: Not Active

CC(C)C[C@H](NC(=O)[C@H](CC(=O)O)NC(=O)CNC(=O)[C@H](CCCNC(=N)N)NC(=O)[C@H](CC(C)C)NC(=O)[C@H](CC(N)=O)NC(=O)[C@@H]1CCCN1C(=O)[C@@H](NC(=O)[C@H](CCCCNC(=O)CCCC[C@@H]1SC[C@@H]2NC(=O)N[C@@H]21)NC(=O)[C@@H](N)CC(N)=O)C(C)C)C(=O)N[C@@H](CCC(N)=O)C(=O)N[C@H](C(=O)NC(C)(C)C(=O)N[C@@H](C)C(=O)N[C@@H](CCC(N)=O)C(=O)N[C@@H](CCCCN)C(=O)N[C@H](C(=O)N[C@@H](C)C(=O)N[C@@H](CCCNC(=N)N)C(=O)N[C@H](C(=O)O)[C@@H](C)O)C(C)C)C(C)C
fold change (FC) [1]: 1.07 | fold change (FC) [2]: 1.11 | Drug uptake [3]: Not Active

CCC[C@H](NC(=O)[C@@H](NC(=O)[C@H](CCC(N)=O)NC(=O)[C@H](CC(C)C)NC(=O)[C@H](CC(=O)O)NC(=O)CNC(=O)[C@H](CCCNC(=N)N)NC(=O)[C@H](CC(C)C)NC(=O)[C@H](CC(N)=O)NC(=O)[C@@H]1CCCN1C(=O)[C@@H](NC(=O)[C@H](CCCCNC(=O)CCCC[C@@H]1SC[C@@H]2NC(=O)N[C@@H]21)NC(=O)[C@@H](N)CC(N)=O)C(C)C)C(C)C)C(=O)N[C@@H](C)C(=O)N[C@@H](CCC(N)=O)C(=O)N[C@@H](CCCCN)C(=O)N[C@H](C(=O)N[C@@H](C)C(=O)N[C@@H](CCCNC(=N)N)C(=O)N[C@H](C(=O)O)[C@@H](C)O)C(C)C
fold change (FC) [1]: 0.77 | fold change (FC) [2]: 1.09 | Drug uptake [3]: Not Active

CC(C)C[C@H](NC(=O)[C@H](CC(=O)O)NC(=O)CNC(=O)[C@H](CCCNC(=N)N)NC(=O)[C@H](CC(C)C)NC(=O)[C@H](CC(N)=O)NC(=O)[C@@H]1CCCN1C(=O)[C@@H](NC(=O)[C@H](CCCCNC(=O)CCCC[C@@H]1SC[C@@H]2NC(=O)N[C@@H]21)NC(=O)[C@@H](N)CC(N)=O)C(C)C)C(=O)N[C@@H](CCC(N)=O)C(=O)N[C@H](C(=O)N[C@@H](CC(C)C)C(=O)N[C@@H](C)C(=O)N[C@@H](CCC(N)=O)C(=O)N(C)[C@@H](CCCCN)C(=O)N[C@H](C(=O)N[C@@H](C)C(=O)N[C@@H](CCCNC(=N)N)C(=O)N[C@H](C(=O)O)[C@@H](C)O)C(C)C)C(C)C
fold change (FC) [1]: 0.37 | fold change (FC) [2]: 0.89 | Drug uptake [3]: Not Active

CC(C)C[C@H](NC(=O)[C@H](CC(=O)O)NC(=O)CNC(=O)[C@H](CCCNC(=N)N)NC(=O)[C@H](CC(C)C)NC(=O)[C@H](CC(N)=O)NC(=O)[C@@H]1CCCN1C(=O)[C@@H](NC(=O)[C@H](CCCCNC(=O)CCCC[C@@H]1SC[C@@H]2NC(=O)N[C@@H]21)NC(=O)[C@@H](N)CC(N)=O)C(C)C)C(=O)N[C@@H](CCC(N)=O)C(=O)N[C@H](C(=O)N[C@@H](CC(C)(C)C)C(=O)N[C@@H](C)C(=O)N[C@@H](CCC(N)=O)C(=O)N[C@@H](CCCCN)C(=O)N[C@H](C(=O)N[C@@H](C)C(=O)N[C@@H](CCCNC(=N)N)C(=O)N[C@H](C(=O)O)[C@@H](C)O)C(C)C)C(C)C
fold change (FC) [1]: 0.6 | fold change (FC) [2]: 1.03 | Drug uptake [3]: Not Active

From ChEMBL document CHEMBL4138084, “Structure-activity relationship study of the tumour-targeting peptide A20FMDV2 via modification of Lys16, Leu13, and N- and/or C-terminal functionality” (Eur J Med Chem, 2017)
